For 36 molecules, inhibition, Ki and IC50 results are on record in patent US8394828B2 (Janssen Pharmaceutica, NV, priority 2003, dated 2013).

Assay [1] has as its target T1, human VR1 (Homo sapiens, UniProt Q8NER1).
T1 construct: expressed in transfected cells; host or cells: HEK293
As to the kind of experiment: Human VR1 [3H] RTX binding assay. The note with it: 3H-RTX binding; for inhibition at 1 µM: compound at 1 μM; for Ki: hVR1, read-out: 3H-RTX binding assay Ki hVR1. The method, boiled down:
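Membranes from HEK293 cells transfected with human VR1, about 120 μg protein/ml, incubated with [3H] RTX in HEPES buffer pH 7.4 with 0.25 mg/mL fatty acid-free BSA for 60 min at 37° C. Bound radioactivity measured by scintillation counting. Non-specific binding defined with 200 nM unlabeled RTX.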

Assay [2] concerns the target T1, human VR1. As to the kind of experiment: Human VR1 functional assay (intracellular Ca++, FLIPR, capsaicin challenge). It is filed as cell-based. The procedure: The functional activity of the test compounds was determined by measuring changes in intracellular calcium concentration using a Ca^++-sensitive fluorescent dye and FLIPR™ technology.
EC50 or IC50 values were determined from dose-response studies.

[3] abbreviates: hVR1, capsaicin challenge, read-out: FLIPR functional assay IC50 hVR1.
Setting [4] is: FLIPR functional assay IC50 hVR1 60 min, 60 min.

“And” between values parts separate entries of the source, which are not always exact repeats. Equal entries are not always repeated. Where two headings read alike, the source gives them in different places.

T1 sequence (Q8NER1 whole entry): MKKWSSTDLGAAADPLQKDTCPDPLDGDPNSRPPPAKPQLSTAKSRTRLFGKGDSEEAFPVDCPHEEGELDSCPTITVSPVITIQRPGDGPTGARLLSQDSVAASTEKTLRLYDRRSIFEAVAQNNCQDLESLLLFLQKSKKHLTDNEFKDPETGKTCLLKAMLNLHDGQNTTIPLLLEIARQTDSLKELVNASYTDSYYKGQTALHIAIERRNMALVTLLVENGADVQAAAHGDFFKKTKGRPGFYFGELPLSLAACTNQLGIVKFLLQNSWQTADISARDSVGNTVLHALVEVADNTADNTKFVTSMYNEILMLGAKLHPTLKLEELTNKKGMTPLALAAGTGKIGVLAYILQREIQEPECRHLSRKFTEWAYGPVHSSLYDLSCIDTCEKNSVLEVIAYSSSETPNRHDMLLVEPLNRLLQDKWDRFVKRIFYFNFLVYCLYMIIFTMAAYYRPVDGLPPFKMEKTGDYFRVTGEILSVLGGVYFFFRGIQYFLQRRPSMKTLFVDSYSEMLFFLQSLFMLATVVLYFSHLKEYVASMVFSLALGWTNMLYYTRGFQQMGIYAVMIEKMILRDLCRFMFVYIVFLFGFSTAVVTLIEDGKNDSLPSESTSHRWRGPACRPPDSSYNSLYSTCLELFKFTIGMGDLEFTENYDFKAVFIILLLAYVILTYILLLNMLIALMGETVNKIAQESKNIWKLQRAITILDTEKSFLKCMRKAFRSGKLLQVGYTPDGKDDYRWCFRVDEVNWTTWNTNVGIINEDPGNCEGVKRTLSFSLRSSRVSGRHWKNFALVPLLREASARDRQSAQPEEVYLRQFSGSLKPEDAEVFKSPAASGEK

In the case of `O=C(Nc1cnc2ccccc2c1)c1ccc(N2CCC(Cc3ccccc3)CC2)nc1` [4-Benzyl-3,4,5,6-tetrahydro-2H-{1,2′}bipyridinyl-5′-carboxylic acid quinolin-3-ylamide], at human VR1 [1], the inhibition at 1 µM was determined as 100% and the Ki turned out to be 25.6 nM. Further, the IC50 on human VR1 [2] (setting [3]) turned out to be 440 nM.
As to `CCCCOc1ccc(C(=O)Nc2cnc3ccccc3c2)cc1` [4-Butoxy-N-quinolin-3-yl-benzamide], the Ki on human VR1 [1] was 155 nM. Moreover, at human VR1 [2] (setting [3]), the concentration for half-maximal inhibition (IC50) came to 10000 nM.
For `CCCCC1CCC(C(=O)Nc2cnc3ccccc3c2)CC1` (centres unmarked) [4-Butyl-cyclohexanecarboxylic acid quinolin-3-ylamide], at human VR1 [1], the inhibition at 1 µM was 81% and the inhibition constant (Ki) came out at 124 nM. In addition, at human VR1 [2] (setting [3]), the 50% inhibitory concentration (IC50) was determined as 170 nM.
For the molecule `CN(C(=O)c1ccc(NC2CCCCC2)cc1)c1cnc2ccccc2c1` [4-Cyclohexylamino-N-methyl-N-quinolin-3-yl-benzamide], the inhibitory constant (Ki) on human VR1 [1] came out at 2160 nM. On human VR1 [2] (setting [3]), the IC50 came out at 10000 nM.
`O=C(Nc1cnc2ccccc2c1)c1ccc(NC2CCCC2)cc1` [4-Cyclopentylamino-N-quinolin-3-yl-benzamide]: the inhibition at 1 µM at human VR1 [1] amounted to 32%. At human VR1 [2] (setting [3]), the IC50 amounted to 3200 nM.
For the molecule `O=C(Nc1cnc2ccccc2c1)c1ccc(N(Cc2ccccc2)Cc2ccccc2)cc1` [4-Dibenzylamino-N-quinolin-3-yl-benzamide], on human VR1 [1], the inhibition at 1 µM turned out to be 51% and the inhibitory constant (Ki) is 441 nM. Besides, the IC50 at human VR1 [2] (setting [4]) came out at 4200 nM.
As to `CCCCN(CCCC)c1ccc(C(=O)Nc2cnc3ccccc3c2)cc1` [4-Dibutylamino-N-quinolin-3-yl-benzamide], the Ki at human VR1 [1] turned out to be 241 nM. The values for the IC50 at human VR1 [2] (setting [4]) and at human VR1 [2] (setting [3]) were 270 nM and 4600 nM, respectively.
Turning to `CCCCCCN(CCCCCC)c1ccc(C(=O)Nc2cnc3ccccc3c2)cc1` [4-Dihexylamino-N-quinolin-3-yl-benzamide], on human VR1 [1], the inhibition at 1 µM was 74% and the Ki stood at 185 nM. Further, at human VR1 [2] (setting [4]), the 50% inhibitory concentration (IC50) worked out at 2900 nM.
Consider `CCCN(CCC)c1ccc(C(=O)Nc2cnc3ccccc3c2)cc1` [4-Dipropylamino-N-quinolin-3-yl-benzamide], for which the Ki on human VR1 [1] is 219 nM. Moreover, the IC50 at human VR1 [2] (setting [4]) worked out at 166 nM; on human VR1 [2] (setting [3]), 610 nM.
`CCCCCNc1ccc(C(=O)Nc2cnc3ccccc3c2)cc1` [4-Pentylamino-N-quinolin-3-yl-benzamide]: on human VR1 [1], the inhibitory constant (Ki) worked out at 876 nM. Also, the concentration for half-maximal inhibition (IC50) was 30000 nM at human VR1 [2] (setting [4]) and 8100 nM at human VR1 [2] (setting [3]).
As for `O=C(Nc1cnc2ccccc2c1)c1ccc(NCCc2ccccc2)cc1` [4-Phenethylamino-N-quinolin-3-yl-benzamide], the inhibition at 1 µM on human VR1 [1] stood at 31%. Moreover, the IC50 on human VR1 [2] (setting [3]) was 9200 nM.
Taken in the same sequence, the figures for `O=C(Nc1cnc2ccccc2c1)c1ccc(N2CCNCC2)cc1` [4-Piperazin-1-yl-N-quinolin-3-yl-benzamide] were 1% and 740 nM.
For `CCCC1CCN(c2ccc(C(=O)Nc3cnc4ccccc4c3)cn2)CC1` [4-Propyl-3,4,5,6-tetrahydro-2H-{1,2′}bipyridinyl-5′-carboxylic acid quinolin-3-ylamide], on human VR1 [1], the inhibition at 1 µM was 93% and the Ki stood at 117 nM. In addition, the IC50 at human VR1 [2] (setting [3]) was 490 nM.
The matching figures for `CC(C)(C)C1CCC(C(=O)Nc2cnc3ccccc3c2)CC1` (centres unmarked) [4-tert-Butyl-cyclohexanecarboxylic acid quinolin-3-ylamide]: 97%, 64.9 nM and 10000 nM.
The matching figures for `CCCCC(C)(C)c1ccc(CCCC(=O)Nc2cnc3ccccc3c2)cc1` [4-{4-(1,1-Dimethyl-pentyl)-phenyl}-N-quinolin-3-yl-butyramide]: 82%, 221 nM and 10000 nM.
Taken in the same sequence, the figures for `CCC(C)(C)c1ccc(C=CCC(=O)Nc2cnc3ccccc3c2)cc1` [4-{4-(1,1-Dimethyl-propyl)-phenyl}-but-3-enoic acid quinolin-3-ylamide] were 55%, 137 nM and 10000 nM.
As for `CN(CCC(C)(C)C)c1ccc(C(=O)Nc2cnc3ccccc3c2)cc1` [4-{(3,3-Dimethyl-butyl)-methyl-amino}-N-quinolin-3-yl-benzamide], on human VR1 [1], the inhibition at 1 µM came out at 99% and the inhibitory constant (Ki) was 20.9 nM. In addition, the IC50 against human VR1 [2] (setting [4]) came out at 1300 nM. On human VR1 [2] (setting [3]), the half-maximal inhibitory concentration (IC50) was 10000 nM.
Consider `CC(C)CCN(C)c1ccc(C(=O)Nc2cnc3ccccc3c2)cc1` [4-{Methyl-(3-methyl-butyl)-amino}-N-quinolin-3-yl-benzamide], for which, at human VR1 [1], the inhibition at 1 µM amounted to 90% and the Ki stood at 554 nM. For the same molecule, the IC50 at human VR1 [2] (setting [3]) amounted to 280 nM.
As for `CN(CCCc1ccccc1)c1ccc(C(=O)Nc2cnc3ccccc3c2)cc1` [4-{Methyl-(3-phenyl-propyl)-amino}-N-quinolin-3-yl-benzamide], on human VR1 [1], the inhibition at 1 µM was found to be 97% and the Ki was 74.1 nM. Moreover, 156 nM corresponded to half-maximal inhibition against human VR1 [2] (setting [4]) (IC50). For the same molecule, the concentration for half-maximal inhibition (IC50) at human VR1 [2] (setting [3]) was found to be 10000 nM.
Turning to `Cc1ccc(C(C)CCN(C)c2ccc(C(=O)Nc3cnc4ccccc4c3)cc2)o1` (centres unmarked) [4-{Methyl-{3-(5-methyl-furan-2-yl)-butyl}-amino}-N-quinolin-3-yl-benzamide], on human VR1 [1], the inhibition at 1 µM turned out to be 102% and the Ki was determined as 31.2 nM. For the same molecule, on human VR1 [2] (setting [3]), the half-inhibitory concentration (IC50) was 1500 nM.
For the molecule `O=C(Nc1cnc2ccccc2c1)c1ccc2c(c1)CCCC2` [5,6,7,8-Tetrahydro-naphthalene-2-carboxylic acid quinolin-3-ylamide], at human VR1 [1], the inhibition constant (Ki) came out at 62.3 nM. The half-maximal inhibitory concentration (IC50) on human VR1 [2] (setting [3]) amounted to 10000 nM.
In the case of `O=C(Nc1cnc2ccccc2c1)c1cc2cc(Cl)ccc2[nH]1` [5-Chloro-1H-indole-2-carboxylic acid quinolin-3-ylamide], the inhibition at 1 µM at human VR1 [1] was determined as 36%. For the same molecule, the IC50 on human VR1 [2] (setting [3]) turned out to be 2800 nM.
Regarding `CCCCCc1ccc(C(=O)Nc2cnc3ccccc3c2)s1` [5-Pentyl-thiophene-2-carboxylic acid quinolin-3-ylamide], on human VR1 [1], the inhibition at 1 µM worked out at 57% and the Ki is 647 nM. Moreover, the IC50 on human VR1 [2] (setting [3]) was 900 nM.
For `O=C(Nc1cnc2ccccc2c1)c1ccc(N2CC3CCCC(C3)C2)nc1` [6-(3-Aza-bicyclo{3.3.1}non-3-yl)-N-quinolin-3-yl-nicotinamide], at human VR1 [1], the inhibition at 1 µM was 80% and the Ki came to 9.86 nM. At human VR1 [2] (setting [4]), this molecule came in with an IC50 of 279 nM. In addition, at human VR1 [2] (setting [3]), the half-inhibitory concentration (IC50) stood at 3700 nM.
In the case of `CN(Cc1ccccc1)c1ccc(C(=O)Nc2cnc3ccccc3c2)cn1` [6-(Benzyl-methyl-amino)-N-quinolin-3-yl-nicotinamide], the inhibition at 1 µM on human VR1 [1] amounted to 43%. For the same molecule, on human VR1 [2] (setting [3]), the half-maximal inhibitory concentration (IC50) is 390 nM.
For `CN(c1ccc(C(=O)Nc2cnc3ccccc3c2)cn1)C1CCCCC1` [6-(Cyclohexyl-methyl-amino)-N-quinolin-3-yl-nicotinamide], on human VR1 [1], the inhibition at 1 µM stood at 99%; the inhibitory constant (Ki) was 35.9 nM and 218 nM. Moreover, at human VR1 [2] (setting [3]), the half-maximal inhibitory concentration (IC50) was 300 nM and 245 nM.
For the molecule `CCCCCCCN(C)c1ccc(C(=O)Nc2cnc3ccccc3c2)cn1` [6-(Heptyl-methyl-amino)-N-quinolin-3-yl-nicotinamide], on human VR1 [1], the inhibition at 1 µM stood at 90% and the Ki was 97.3 nM. For the same molecule, on human VR1 [2] (setting [3]), the IC50 came out at 1500 nM.
Taken in the same sequence, the figures for `CCCCCN(C)c1ccc(C(=O)Nc2cnc3ccccc3c2)cn1` [6-(Methyl-pentyl-amino)-N-quinolin-3-yl-nicotinamide] were 91%, 122 nM and 400 nM.
For the molecule `CN(CCc1ccccc1)c1ccc(C(=O)Nc2cnc3ccccc3c2)cn1` [6-(Methyl-phenethyl-amino)-N-quinolin-3-yl-nicotinamide], the inhibition at 1 µM on human VR1 [1] amounted to 97%. The inhibition constant Ki at human VR1 [1] amounted to 243 nM. The values for the IC50 against human VR1 [2] (setting [4]) and on human VR1 [2] (setting [3]) were 540 nM and 1200 nM, respectively.
With `O=C(Nc1cnc2ccccc2c1)c1ccc(N2CCCCCC2)nc1` [6-Azepan-1-yl-N-quinolin-3-yl-nicotinamide], on human VR1 [1], the inhibition at 1 µM was found to be 44% and the Ki was 124 nM. Moreover, at human VR1 [2] (setting [3]), the IC50 was 215 nM.
For the molecule `O=C(Nc1cnc2ccccc2c1)c1ccc(N2CCCCCCC2)nc1` [6-Azocan-1-yl-N-quinolin-3-yl-nicotinamide], at human VR1 [1], the inhibition at 1 µM was 102% and the Ki turned out to be 30.4 nM. At human VR1 [2] (setting [4]), this molecule registered an IC50 of 250 nM. Moreover, the IC50 on human VR1 [2] (setting [3]) was determined as 5160 nM.
On to `O=C(Nc1cnc2ccccc2c1)c1ccc(NC2CCCCC2)nc1` [6-Cyclohexylamino-N-quinolin-3-yl-nicotinamide], for which the inhibition at 1 µM on human VR1 [1] was found to be 1%. Further, the IC50 on human VR1 [2] (setting [3]) worked out at 990 nM.
Turning to `CCCCCNc1ccc(C(=O)Nc2cnc3ccccc3c2)cn1` [6-Pentylamino-N-quinolin-3-yl-nicotinamide], on human VR1 [1], the inhibition at 1 µM worked out at 57% and the Ki was 281000 nM. In addition, on human VR1 [2] (setting [4]), 8000 nM corresponded to half-maximal inhibition (IC50).
On to `O=C(CCc1ccc(C23CC4CCCC(CC(C4)C2)C3)cc1)Nc1cnc2ccccc2c1` [N-Quinolin-3-yl-3-(4-tricyclo{5.3.1.13,9}dodec-1-yl-phenyl)-propionamide], for which, at human VR1 [1], the inhibition constant Ki was 176 nM. This molecule showed a 50% inhibitory concentration (IC50) at human VR1 [2] (setting [4]) of 1900 nM.
Consider `CC1(C)CCC(C)(C)c2cc(CCC(=O)Nc3cnc4ccccc4c3)ccc21` [N-Quinolin-3-yl-3-(5,5,8,8-tetramethyl-5,6,7,8-tetrahydro-naphthalen-2-yl)-propionamide], for which the Ki at human VR1 [1] is 13 nM. Besides, the 50% inhibitory concentration (IC50) at human VR1 [2] (setting [3]) was 70 nM.
Taken in the same sequence, the figures for `O=C(CCc1ccc2c(c1)CCCC2)Nc1cnc2ccccc2c1` [N-Quinolin-3-yl-3-(5,6,7,8-tetrahydro-naphthalen-2-yl)-propionamide] were 200 nM and 10000 nM.

One may read the inhibition as the drop in the measured response relative to a control, in per cent. The term Ki denotes a measure of affinity in units of concentration, obtained from inhibition or displacement. Usually IC50 stands for the concentration that inhibits the measured activity by half.
